We go through 3 molecules from patent US12053777B2, “Devices and methods for detecting cancerous cells” (Academia Sinica, priority 2019, dated 2024).

What all share (assay): Capture of cells by sulfated octasaccharide-coated magnetic beads on microfluidic chip
Common to all, as to type: cell-based

The subject of assay [1] is MMNK-1. Conditions: for capture rate: MMNK-1 cells; for capture rate, in words: normal cells (MINK-1). How it is done:
(§1) Preparation of magnetic beads pre-coated with a sulfated octasaccharide. The surface of magnetic beads was respectively coated with the sulfated octasaccharides of the present invention (e.g., HS1, HS12 and etc) with three different concentrations (1 μM, 10 μM and 100 μM). Briefly, sulfated octasaccharides were first incubated with Dynabeads® MyOne™ Streptavidin T1 (˜7-10×10^9 beads/mL, Ø=1 μm, Invitrogen Co., USA) in a volume ratio of 1:10 for 30 min. Then beads were collected by using a magnet for 5 min, followed by discarding the supernatant and washing thrice by using 1-mL deionized (DI) water. Finally, the coated beads were suspended in the equal volume of DI water as the initial volume of Dynabeads® taken from the vial.
(§2) The microfluidic chip constructed above was employed to capture cancerous cells. Briefly, 2×10^5 cells from various types of cancerous cell lines were suspended in 100 μL×phosphate buffered saline (PBS) buffer and loaded into six capture chambers, respectively. 10 μL of different concentrations of sulfated octasaccharides coated beads were manually pipetted in the capture chambers, and gently mixed with cells by the micropumps for 15 min. After incubation, the cells were identified and bound by the magnetic beads pre-coated with the sulfated octasaccharides of formula (I) of the present invention. Then, these captured cells were collected with a magnetic force and washed by 1×PBS buffer. After isolating, the beads and captured cells were suspended in 100 μL 1×PBS buffer, and finally loaded into a hemocytometer to calculate the capture rates.
(§3) In a pre-test, total of 8 cancer cell lines (i.e., MMNK-1, SNU-478, HuCCT-1, Huh-28, KKU-100, HepG2, BxPC3, and HCT8) were respectively loaded into the microsystem and incubated with the magnetic beads, then the captured cells were collected with a magnetic force, and finally loaded into a hemocytometer to calculate the capture rates.

Assay [2] concerns SNU-478. Conditions: SNU-478 cells. How it is done: as §1, §2, §3
Assay [3] deals with HCT8. The protocol:
as §1, §2, §3

In assay [4] the test system is HepG2. The protocol: as §1, §2, §3
The subject of assay [5] is HuCCT-1. Conditions: for capture rate: HuCCT-1 cells; for capture rate, in words: metastasized CCA cells (HuCCT-1). How it is done: as §1, §2, §3
Assay [6] has as its system BxPC3. How it is done: as §1, §2, §3
Assay [7] concerns KKU-100. Conditions: KKU-100 cells. The protocol:
as §1, §2, §3

The test system of assay [8] is Huh-28. As to conditions: for specificity of capture among the eight cell lines: Huh28, a cholangiocarcinoma (CCA) cell line, versus the other cell lines; for capture rate: Huh-28 cells. How it is done:
as §1, §2, §3
FIG. 2 illustrates that the cancer cells, Huh-28, could be successfully captured by magnetic beads pre-coated with HS 1 of 100 μM. Huh-28 cells before being captured by magnetic beads are depicted in FIG. 2, panel a. After well mixing Huh-28 cells and beads for 30 mins, cells were surrounded by beads (FIG. 2, panel b). The supernatant collection through an isolation process by magnetic force after 30-min incubation is depicted in FIG. 2, panel c.

Assay [9] concerns Huh-28. As to conditions: Huh-28 cells; EpCAM-coated beads.

For the molecule `CC(=O)NC1C(O)[C@H](O)C(CO)O[C@@H]1O[C@@H]1C(C(=O)[O-])O[C@@H](O[C@@H]2C(CO)O[C@H](O[C@@H]3C(C(=O)[O-])O[C@@H](O[C@@H]4C(CO)O[C@H](O[C@@H]5C(C(=O)[O-])O[C@@H](O[C@@H]6C(CO)O[C@H](O[C@@H]7C(C(=O)[O-])O[C@@H](OCCCCCN)C(O)C7O)C(NC(C)=O)C6O)C(O)C5O)C(NC(C)=O)C4O)C(O)C3O)C(NC(C)=O)C2O)C(O)C1O.[Na+].[Na+].[Na+].[Na+]` (stereo partly drawn) [HS 1, 5-Aminopentyl (2-acetamido-2-deoxy-α-D-glucopyranosyl)-(1→4)-α-L-idopyranosiduronyl-(1→4)-(2-acetamido-2-deoxy-α-D-glucopyranosyl)-(1→4)-α-L-idopyranosiduronyl-(1→4)-(2-acetamido-2-deoxy-α-D-glucopyranosyl)-(1→4)-α-L-idopyranosiduronyl-(1→4)-(2-acetamido-2-deoxy-α-D-glucopyranosyl)-(1→4)-α-L-idopyranosiduronate], the capture rate in assay [1] (beads coated with HS at 1 μM) is given as 58 ± 11%; in [1] (beads coated with HS at 10 μM), 52 ± 6%; in assay [1] (beads coated with HS at 100 μM), 34 ± 5%; in assay [2] (beads coated with HS at 1 μM), 23 ± 13%; in assay [2] (beads coated with HS at 10 μM), 20 ± 8%; in [2] (beads coated with HS at 100 μM), 22 ± 7%. The capture rate in [3] (beads coated with HS at 1 μM) was 18 ± 5%; in assay [3] (beads coated with HS at 10 μM), 14 ± 4%; in [3] (beads coated with HS at 100 μM), 13 ± 3%; in [4] (beads coated with HS at 1 μM), 12 ± 0%; in assay [4] (beads coated with HS at 10 μM), 16 ± 6%; in assay [4] (beads coated with HS at 100 μM) it was 10 ± 4%. The capture rate in [5] (beads coated with HS at 1 μM) is listed as 4 ± 1%; in assay [5] (beads coated with HS at 10 μM), 6 ± 2%; in assay [5] (beads coated with HS at 100 μM), 4 ± 1%; in assay [6] (beads coated with HS at 1 μM) it was 15 ± 5%; in assay [6] (beads coated with HS at 10 μM), 18 ± 4%; in [6] (beads coated with HS at 100 μM), 13 ± 7%. For the same molecule, the capture rate is recorded as 40 ± 10% in assay [7] (beads coated with HS at 1 μM); 46 ± 1% in assay [7] (beads coated with HS at 10 μM); 51 ± 2% in assay [7] (beads coated with HS at 100 μM); 65 ± 20% in assay [8] (beads coated with HS at 1 μM); 70 ± 10% in assay [8] (beads coated with HS at 10 μM); 78 ± 14% in assay [8] (beads coated with HS at 100 μM). This molecule came in with a capture rate in [8] (beads coated with HS at 100 μM, listed as HS1) of 78±14%. For the same molecule, the “capture rate, in words” value in assay [1] and in [5] was “relatively low” throughout. The “specificity of capture among the eight cell lines” value in assay [8] is listed as “highly specific to Huh28”. The “capture of Huh-28 cells seen in photographs (FIG. 2)” value in assay [8] (beads coated at 100 μM, 30-min incubation, few cells left in supernatant) was “Almost all of the Huh-28 cells were captured and isolated”.
For `NCCCCCO[C@@H]1O[C@H](C(=O)O)[C@@H](O[C@H]2O[C@H](COS(=O)(=O)O)[C@@H](O[C@@H]3O[C@@H](C(=O)O)[C@@H](O[C@H]4O[C@H](COS(=O)(=O)O)[C@@H](O[C@@H]5O[C@H](C(=O)O)[C@@H](O[C@H]6O[C@H](COS(=O)(=O)O)[C@@H](O[C@@H]7O[C@@H](C(=O)O)[C@@H](O[C@H]8O[C@H](COS(=O)(=O)O)[C@@H](O)[C@H](O)[C@H]8NS(=O)(=O)O)[C@H](O)[C@H]7OS(=O)(=O)O)[C@H](O)[C@H]6NS(=O)(=O)O)[C@H](O)[C@H]5OS(=O)(=O)O)[C@H](O)[C@H]4NS(=O)(=O)O)[C@H](O)[C@H]3OS(=O)(=O)O)[C@H](O)[C@H]2NS(=O)(=O)O)[C@H](O)[C@H]1OS(=O)(=O)O` [HS 12], the capture rate in [1] (beads coated with HS at 1 μM) stood at 55 ± 7%; in assay [1] (beads coated with HS at 10 μM), 47 ± 20%; in assay [1] (beads coated with HS at 100 μM), 16 ± 8%; in assay [2] (beads coated with HS at 1 μM), 20 ± 5%; in assay [2] (beads coated with HS at 10 μM), 17 ± 7%; in assay [2] (beads coated with HS at 100 μM), 16 ± 8%. Moreover, the capture rate in [3] (beads coated with HS at 1 μM) is on record as 16 ± 3%; in assay [3] (beads coated with HS at 10 μM), 13 ± 0%; in assay [3] (beads coated with HS at 100 μM), 9 ± 2%; in assay [4] (beads coated with HS at 1 μM) it was 14 ± 1%; in assay [4] (beads coated with HS at 10 μM) it was 11 ± 4%; in assay [4] (beads coated with HS at 100 μM), 9 ± 6%. The capture rate was 5 ± 1% in assay [5] (beads coated with HS at 1 μM); 5 ± 2% in assay [5] (beads coated with HS at 10 μM); 4 ± 2% in assay [5] (beads coated with HS at 100 μM); 16 ± 6% in [6] (beads coated with HS at 1 μM); 11 ± 3% in [6] (beads coated with HS at 10 μM); 7 ± 3% in assay [6] (beads coated with HS at 100 μM). Also, the capture rate in assay [7] (beads coated with HS at 1 μM) was 42 ± 3%; in assay [7] (beads coated with HS at 10 μM), 44 ± 2%; in assay [7] (beads coated with HS at 100 μM), 41 ± 11%; in assay [8] (beads coated with HS at 1 μM) it was 66 ± 6%; in assay [8] (beads coated with HS at 10 μM) it was 67 ± 3%; in assay [8] (beads coated with HS at 100 μM), 73±4%. Besides, the “capture rate, in words” value in assay [1] and in assay [5] was “relatively low” throughout. Moreover, the “specificity of capture among the eight cell lines” value in [8] was “highly specific to Huh28”.

B1: EpCAM: epithelial cell adhesion molecule (EpCAM)-coated beads, comparison capture reagent (protein, UniProt P16422 24-314, looked up)
Epithelial cell adhesion …: QEECVCENYKLAVNCFVNNNRQCQCTSVGAQNTVICSKLAAKCLVMKAEMNGSKLGRRAKPEGALQNNDGLYDPDCDESGLFKAKQCNGTSMCWCVNTAGVRRTDKDTEITCSERVRTYWIIIELKHKAREKPYDSKSLRTALQKEITTRYQLDPKFITSILYENNVITIDLVQNSSQKTQNDVDIADVAYYFEKDVKGESLFHSKKMDLTVNGEQLDLDPGQTLIYYVDEKAPEFSMQGLKAGVIAVIVVVVIAVVAGIVVLVISRKKRMAKYEKAEIKEMGEMHRELNA
modifications: coated on beads
notes: epithelial cell adhesion molecule (EpCAM)-coated beads, comparison capture reagent
In the case of B1, the capture rate is on record as 58 ± 8% in [1] (EpCAM-coated beads); 74 ± 6% in assay [2] (EpCAM-coated beads); 22 ± 3% in assay [3] (EpCAM-coated beads); 44 ± 7% in assay [4] (EpCAM-coated beads); 67 ± 11% in assay [5] (EpCAM-coated beads); 45 ± 6% in assay [6] (EpCAM-coated beads). Further, the results for the capture rate in assay [7] (EpCAM-coated beads) and in assay [9] were 51 ± 5% and 58±19%, respectively.
